Reference: patent US20100008965A1, “BIOCOMPATIBLE MEDICAL PRODUCTS HAVING ENHANCED ANTI-THROMBOGENIC PROPERTIES” (priority 2008, published 2010)

Key:
HCAEC [1] = assay: alpha-4 integrin function blocking cell binding assay, HCAEC; type: cell-based, human; conditions: 0.5 μg antibody per 5×10^4 cells, 8 h; CS-1 p<0.05
Description: To verify that HCAEC or HUVEC adhesion to immobilized CS-1 polypeptides is specifically mediated via alpha-4-containing integrin heterodimers, alpha-4 integrin function blocking cell binding assays were performed. RGDS, EILEVPST, and CS-1 polypeptides were immobilized in Immobilizer™ Amino 96-well microplates. Microplate wells were prepared as described above. Trypsinized HCAEC or HUVEC suspensions were manually counted, aliquoted into two groups, and incubated for one hour on ice with one of the following antibodies at a concentration of 0.5 μg antibody per 5×10^4 cells: (a) mouse monoclonal IgG1 anti-human alpha-4-integrin (CD49d, clone P1H4) (Chemicon), or (b) mouse monoclonal IgG1 anti-human isotype-matched control (R&D Systems). Next, 5×10^4 cells suspended in their respective basal medium were added to wells containing immobilized peptide polypeptides and incubated for eight hours at 37° C. and a 5% CO2 atmosphere. Adherent cells were analyzed via crystal violet staining as described previously.
To differentiate whether HCAEC and HUVEC adhere to CS-1 peptides via an alpha-4 integrin-specific interaction, HCAEC and HUVEC adhesion assays to CS-1, RGDS, and EILEVPST peptides were performed following one hour endothelial cell incubations with either an alpha-4 integrin function blocking antibody or an IgG isotype-matched control antibody. The EILEVPST peptide served as the negative control cell adhesion peptide. The RGDS peptide served as an additional control. Endothelial cell adhesion to RGDS is primarily mediated by alpha-5-beta-1 integrins. Therefore, alpha-4 integrin function blocking should not have a significant effect on adhesion to RGDS. Thus, specificity of HCAEC and HUVEC binding to CS-1 via alpha-4 integrins could be tested.

human platelets [2] = assay: 51Cr-labeled platelet adhesion to immobilized ECM proteins under shear flow; type: cell-based; conditions: 16.5 dyne/cm^2, one hour; non-activated and thrombin-activated; versus CS-1 and glass control
Description: Characterization of human platelet adhesion to immobilized extracellular matrix proteins was performed by subjecting non-activated or thrombin-activated human platelets to a shear stress τ=16.5 dyne/cm^2 for one hour using a peristaltic pump-driven parallel plate fluid flow system. Washed human platelets were isolated as described above, resuspended in platelet washing buffer (PWB), and adjusted to a final concentration of approximately 0.5-1.0×10^9 platelets/ml. The platelet suspensions were incubated for thirty minutes at room temperature with 25 μCi/ml Na2^51CrO4 (GE Healthcare, Piscataway, N.J.). ^51Cr-labeled platelets were centrifuged at 2000×g for three minutes at room temperature and resuspended in 20 ml fresh frozen plasma previously thawed and warmed to 37° C. The ^51Cr-platelet/plasma solution was distributed equally (5 ml) into each of four reservoirs containing an additional 50 ml of 37° C. human plasma. For thrombin-activated platelets, 1 U thrombin (Sigma) per 3 ml platelet suspension was added immediately prior to aliquoting the ^51Cr-platelet/plasma solution into the flow loop reservoirs.
75×38×1 mm glass microscope slides were coated with ECM proteins as described above. Slides were incubated for one hour at room temperature with a 0.25% (w/v) sterile-filtered BSA solution. […]

human platelets [3] = assay: DiOC6-labeled platelet adhesion imaging under shear flow; type: cell-based; conditions: 16.5 dyne/cm^2, one hour, platelets activated prior to flow
Description: To visualize shear stress-mediated platelet adhesion to the immobilized ECM proteins, non-radiolabeled non-activated or thrombin-activated human platelets were prepared as described above, but were first incubated for ten minutes at room temperature with a 10 μM DiOC6 (dihexaoxacarbocyanine iodide) (Sigma) solution prior to being subjected to flow for one hour at a shear stress τ=16.5 dyne/cm^2. Post-flow, all slides were rinsed twice with PBS and fixed with 4% (w/v) paraformaldehyde. Platelet adhesion was visualized on a Nikon Diaphot 200 inverted epifluorescence microscope (Nikon) at 488 nm using a 40× objective. Images were captured using an Olympus DP70 digital camera (Olympus America, Inc.) and analyzed using the Adobe® Photoshop® software package version 6.0 (Adobe Systems Incorporated, San Jose, Calif.).

HCAEC [4] = assay: HCAEC retention under unidirectional fluid flow; type: cell-based, human; conditions: 15 dyne/cm^2, thirty minutes
Description: In addition to the above, 75×38×1 mm glass microscope slides (Fisher Scientific Research, Pittsburgh, Pa.) were sterilized and coated overnight with human plasma fibronectin or CS-1 peptide at 5 μg/cm^2, or with PBS only. Slides were incubated for one hour at room temperature with a 0.01% (w/v) sterile-filtered BSA solution. HCAEC or HUVEC were seeded in basal medium on slides at 1.85×10^4 cells/cm^2 and permitted to adhere for eight hours under static conditions at 37° C. Fluid flow was performed using parallel plate flow chambers connected to fluid flow loops, as described in Pavalko et al., Fluid shear stress inhibits TNF-alpha-induced apoptosis in osteoblasts: a role for fluid shear stress-induced activation of PI3-kinase and inhibition of caspase-3. J Cell Phys 194, 194, 2002. Briefly, endothelial cell-seeded slides were secured within flow chambers and connected to fluid flow loops. All flows were performed in a 37° C. environment with serum-free culture medium that was continually bathed in a 5% CO2 atmosphere. […] Fluorescence micrographs were captured as described above. […] Nuclei were counted from five equally distributed visual fields per slide and pooled together for each substrate condition. Data was calculated as percent (%) cell retention, where % retention=[(average nuclei count)flow÷(average nuclei count)static]×100.

CS-1: full-length 25 amino acid polypeptide, first 25 amino acid sequence of the fibronectin type IIICS domain (DELPQLVTLPHPNLHGPEILDVPST; Homo sapien)
difference in HCAEC adhesion between IgG isotype control and alpha-4 integrin blocking antibody treated cells (HCAEC [1]): A statistical difference was achieved | flowed platelet binding (51Cr), both states of activation (human platelets [2]): lack of significant upregulation in platelet binding | thrombin-activated platelet adhesion and thrombus formation (DiOC6 images) (human platelets [3]): higher binding to the CS-1 substratum relative to their non-activated counterparts | HCAEC percent retention versus non-ECM-coated control substrate (HCAEC [4]; p<0.05): statistically greater | HCAEC percent retention versus fibronectin substrate (HCAEC [4]; p=0.9): not statistically different
